Measurements from US5444042A, “Method of treatment of neurodegeneration with calpain inhibitors” (Cortex Pharmaceuticals, priority 1994, dated 1995).

Legend:
hippocampal slices = test: Hippocampal slice EPSP recovery from severe hypoxia (FIG. 5); format: cell-based, rat; conditions: one hour incubation
Procedure: These studies were performed in a manner similar to that of Example 7B, except using a hypoxic environment in place of the anoxia of Example 7B. […] The control slices experienced little or no recovery.

Calpain I = target: T1, Calpain I (Homo sapiens, UniProt P07384); test: Calpain I KI (Table 1B(ii)); format: biochemical; conditions: Table 1B(ii)
T1 sequence (P07384 1-714): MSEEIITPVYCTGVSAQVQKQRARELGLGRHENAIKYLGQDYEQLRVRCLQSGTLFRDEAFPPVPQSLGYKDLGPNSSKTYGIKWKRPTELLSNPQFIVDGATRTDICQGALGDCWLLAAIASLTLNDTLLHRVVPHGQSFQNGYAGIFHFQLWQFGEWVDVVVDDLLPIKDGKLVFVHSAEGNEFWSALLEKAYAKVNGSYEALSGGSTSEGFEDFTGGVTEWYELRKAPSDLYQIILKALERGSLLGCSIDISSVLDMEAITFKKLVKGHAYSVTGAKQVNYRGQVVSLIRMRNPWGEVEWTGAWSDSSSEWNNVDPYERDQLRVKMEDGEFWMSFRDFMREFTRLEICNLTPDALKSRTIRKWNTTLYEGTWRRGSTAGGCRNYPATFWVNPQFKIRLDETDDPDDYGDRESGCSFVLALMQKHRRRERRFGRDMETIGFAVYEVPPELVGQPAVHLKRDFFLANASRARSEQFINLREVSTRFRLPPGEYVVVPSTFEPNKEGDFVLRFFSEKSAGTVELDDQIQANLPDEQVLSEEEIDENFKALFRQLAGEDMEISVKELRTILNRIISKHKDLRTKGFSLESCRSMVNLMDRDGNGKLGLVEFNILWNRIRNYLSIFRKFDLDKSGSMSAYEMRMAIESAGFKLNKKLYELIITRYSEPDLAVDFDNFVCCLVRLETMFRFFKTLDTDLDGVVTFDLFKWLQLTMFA
T1 sequence (P04632 1-268 partner): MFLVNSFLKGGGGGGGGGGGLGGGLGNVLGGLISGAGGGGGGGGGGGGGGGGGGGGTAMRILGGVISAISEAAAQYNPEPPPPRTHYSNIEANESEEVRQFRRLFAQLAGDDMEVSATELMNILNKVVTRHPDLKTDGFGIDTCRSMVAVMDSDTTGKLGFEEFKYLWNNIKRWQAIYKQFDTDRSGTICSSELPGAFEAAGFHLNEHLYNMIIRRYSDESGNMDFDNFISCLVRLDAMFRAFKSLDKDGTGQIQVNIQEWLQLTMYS
Text: We tested the ability of an additional group of Peptide Keto-Compounds to inhibit several proteases in order to evaluate their specificity for Calpain.

Compound | percent recovery of EPSP from severe hypoxia (FIG. 5) (hippocampal slices) | Ki (Calpain I) [nM]
CCOC(=O)C(=O)C(Cc1ccccc1)NC(=O)C(CC(C)C)NC(=O)OCc1ccccc1 (stereo not drawn) [Z-Leu-Phe-COOEt] | partial recovery | 
CCCC(NC(=O)[C@H](CC(C)C)NC(=O)OCc1ccccc1)C(=O)C(=O)OCC (mixture of isomers) [Z-Leu-Nva-COOEt, Z-Leu-DL-Nva-COOEt] |  | 1400
